Measurements from a melting point compilation (Tetko et al.; mined from patent text by program, amines drawn as free bases though some values may be those of a salt).

melting point | Compound
144 to 145 °C | O=S(=O)(c1ccccc1)n1c(Cc2cc3ccccc3n2S(=O)(=O)c2ccccc2)cc2ccccc21
175 to 181 °C | COc1cc(C(=O)NS(=O)(=O)c2ccccc2Cl)ccc1Cc1cn(C)c2ccc(CCNC(=O)N3CCOCC3)cc12
143 to 144 °C | O=c1cc2c(nn1-c1ccc(Cl)cc1)-c1cc(Br)sc1CCC2
55 to 58 °C | C=CCCc1cc(C2(c3ccc(OC(F)F)cc3)N=C(N)N(C)C2=O)ccc1F (stereo unspecified)
201 to 202 °C | CS(=O)c1ccc(-c2nn3c(c2-c2ccncc2)NCCC3)cc1 (stereo unspecified)
203 to 204 °C | Cc1cc(C(F)(F)F)n2nc(NS(=O)(=O)c3ccccc3Cl)nc2n1
49 to 50 °C | CCCCCN(CCc1ccccc1)C(=O)NCC(C)Cc1ccncc1 (stereo unspecified)
95 to 97 °C | O=C(Nc1cccc2ccccc12)OCCCC(=O)c1ccccc1
133 to 135 °C | O=C1OC(Cl)(c2ccc(Cl)cc2)c2ccccc21 (stereo unspecified)
102 to 104 °C | N#Cc1ccc(C(F)(F)F)cc1Sc1ccccc1N
177 to 179 °C | O=C1c2ccccc2C(=O)N1OCc1ccc2c(c1F)OC(c1ccccc1)(c1ccccc1)O2
248 to 250 °C | COc1cccc2c(=O)c3cccc(OC)c3sc12
274 to 276 °C | C[C@@H]1c2ccccc2-c2ccc(Cl)cc2N1C(=O)c1ccc(O)cc1
190 to 193 °C | Cc1cccc2ncc(C(=O)NC34CC5CC(CC(C5)C3)C4)c(=O)n12
123 to 125 °C | CC(C#N)(C(N)=O)c1cccc(Oc2ccccc2)c1 (stereo unspecified)
71 to 78 °C | CC[C@H](C)[C@H](NC[C@@H](N)CS)C(=O)N[C@@H](Cc1ccccc1)C(=O)N[C@@H](CCSC)C(=O)OCc1ccccc1
87 °C | CCOC(=O)C1=Cc2cc(-c3ccc(C)cc3)ccc2SC1
138 to 140 °C | C/C(=C\c1ccc(O)cc1)c1ccc2c(c1)C(C)(C)CCC2(C)C
160 °C | Cc1c(C(=O)NN2CCCCC2)nn(-c2ccc(Cl)cc2Cl)c1-c1ccc(OS(=O)(=O)CCC(F)(F)F)cc1
203 to 204 °C | O=C(O)c1cn(C2CC2)c2nc(N3CCC(c4ccccn4)C3)c(F)cc2c1=O (stereo unspecified)
142 to 144 °C | COc1ccc(C2=NN(CC(=O)c3ccc(Cl)cc3)C(=O)[C@H]3CCCC[C@@H]23)cc1OC (relative stereo)
223 to 224 °C | CCNC(=O)c1cc2c(nc(C)n2C)c2c1CCC1(Cc3ccccc3C1)N2

melting point | Compound
113 to 114 °C | C=CCn1nc(C)c(C(=O)c2ccc(Cl)cc2Cl)c1OS(=O)(=O)c1ccc(C)cc1
245 to 246 °C | N#Cc1cccc(C2=Nc3ccc(C#Cc4ccc(F)cc4)cc3NC(=O)C2)c1
188 to 190 °C | COc1ccc(C(=O)Nc2ccccc2)cc1NCc1ccc(O)cc1
130 to 132 °C | O=C(CCc1cccc([N+](=O)[O-])c1)Nc1ccc(Nc2ccccc2)cc1
151 to 153 °C | COc1nc(C2=NC(=O)C(C)(C(C)C)N2)c(C(=O)O)cc1C (stereo unspecified)
200 to 203 °C | CC(C)=NNc1cc2c(nn1)CCN(C(=O)c1ccccc1F)C2
86 to 96 °C | O=C(c1cc(-n2cnnn2)ccc1O)N1CCC(CCO)(c2ccccc2)C1 (stereo unspecified)
126 °C | O=C(O)c1nc(C(Cl)(Cl)Cl)n(-c2cccc(C(F)(F)F)c2)n1
72 to 73 °C | Oc1ccccc1CNCCCCCCCCCCCCNCc1ccccc1O
126 to 128 °C | CCO[C@@H](Cc1ccc(OCCc2nc(-c3ccc(C(F)(F)F)cc3)oc2C)c2ccsc12)C(=O)O
239 to 240 °C | CCCCn1c(=O)[nH]c(=O)c2c3n(nc21)CCN3
195 to 197 °C | NC(=O)Nc1nc(CC(=O)Nc2cccc(C(F)(F)F)c2)cs1
160 to 161 °C | CCCCCCCNC(=O)Nc1ccccc1C(=O)NC1CCN(CCSc2nc(-c3ccccc3)c(-c3ccccc3)[nH]2)CC1
137 to 138 °C | COC(Nc1ccccc1)(OC)c1ccnc(C(=O)c2ccc(Cl)cc2)c1
135 to 138 °C | CC1(C)Oc2ccc(C#N)cc2[C@@H](NC(=O)Nc2cccc(CC(=O)O)c2)[C@@H]1O
68 to 70 °C | CC(C)(C)OC(=O)N1CC=C(c2ccc(Br)cc2)CC1
73 to 75 °C | COC(=O)c1ccc2c(c1)C(C#N)=CCC2
142 °C | CNc1cc(N)c(CCCN)c2c1C(=O)c1ccccc1C2=O
183 to 185 °C | CC(C)(C)C(=O)ON=C(N)CN1C(=O)C2(COc3cc4c(cc32)OCO4)c2ccccc21 (stereo unspecified)
175 to 177 °C | c1ccc(C2NCCc3c2[nH]c2ccccc32)cc1 (stereo unspecified)
133 to 137 °C | O=C(O)COc1cccnc1-c1ccc(Cl)c(C(=O)NCC23CC4CC(CC(C4)C2)C3)c1
120 to 124 °C | Cc1ccc2cccc(OCc3c(Cl)ccc(S(=O)(=O)N4CCC[C@H]4C(=O)NCCCNC(=O)c4ccc(C(N)=NO)cc4)c3Cl)c2n1

melting point | Compound
238 to 239 °C | Cc1nn(-c2c(Cl)cc(C(F)(F)F)cc2Cl)nc1C=NC(C#N)=C(N)C#N
198 to 200 °C | Cc1cn2c(C)nc3c(C)nn(C)c3c2n1
159 to 168 °C | O=C(CC(c1ccccc1)(c1ccccc1)c1ccccc1)N1CC2=C(C1)c1cccc3cccc2c13
56 to 58 °C | Cc1ncnn1-c1ccc([N+](=O)[O-])cc1F
101 to 102 °C | CC(=O)C(C)(O)c1ccc(O)cc1 (stereo unspecified)
130 to 131 °C | Cc1ccc2c(n1)N(CCCN(C)C)c1ccccc1N(C)C2=O
162 to 165 °C | CC(C)(C)Nc1nc(N2CCCC2)cc(N2CCNCC2)n1
166 °C | CC1(C)CC(=O)Nc2c(CCCN3CCN(c4nsc5ccccc45)CC3)cccc21
246 to 248 °C | COC(=O)c1cc2c3c(cc([N+](=O)[O-])c2[nH]1)N(C(=O)c1cc2cc(OC)c(OC)c(OC)c2[nH]1)CC3CCl (stereo unspecified)
205 to 206 °C | C=CCc1c(O)ccc2c1ccc(=O)n2CC=C
177 to 178 °C | CCOC(=O)c1c(S(C)(=O)=O)n(C2CC2)c2c(OC)c(F)c(F)cc2c1=O
196 to 197 °C | N#Cc1cccc(CSc2nnc(-c3ccn4ncnc4c3)o2)c1
226 to 228 °C | COc1ccc(C(=O)Nc2ccc(Cl)c(Cl)c2)cc1NS(C)(=O)=O
> 305 °C | Cc1noc(C)c1-c1ccnc2[nH]c(-c3cn(C)c4ccc(C(=O)O)cc34)cc12
211 to 215 °C | N#CC1c2ccccc2Oc2cc(O)cc(O)c21 (stereo unspecified)
48 to 51 °C | N#CCc1cccnc1C#N
160 to 162 °C | CC(COc1ccc2c(c1)CC/C(=C\c1cccs1)C2=O)n1ccnc1 (stereo unspecified)
252 °C | O=CNc1nc(-c2ccccc2)c2cc(Cl)ccc2n1
110 to 116 °C | O=C(OC(=O)c1ccc([N+](=O)[O-])cc1S(=O)(=O)O)c1ccc([N+](=O)[O-])cc1S(=O)(=O)O
140 to 144 °C | CC(C)C(NC(=O)C(Cc1ccccc1)NC(=O)c1ccc(NS(=O)(=O)c2ccc(C(C)(C)C)cc2)cc1)C(=O)Nc1n[nH]c(=S)s1 (stereo unspecified)
144 to 146 °C | CCOC12CC(C)(C)C(O1)C(OC(=O)c1ccc([N+](=O)[O-])cc1)C=C2C (stereo unspecified)

Compound | melting point
CN1Cc2c(C#C[Si](C)(C)C)ncn2-c2cccc(Cl)c2C1=O | 186 to 187 °C
